Measurements: publication PMC3807247 (Journal of the American Chemical Society, 2009)
Where two headings read alike, the source gives them in different places.

How the values were obtained:
[1] = target: full length Udorn AM2 protein (Influenza A virus, UniProt P0DOF5); experiment: Two-electrode voltage clamp; format: cell-based, influenza virus A/Udorn/72; conditions: for AM2 remaing Activity after 100uM inhibition: Table 1, 100 uM inhibitor, pH 5.5, -20 mV; for inhibitory activity against AM2 (in words): tested at 100 μM
[2] = system: AM2 channel expressed in Xenopus oocytes; conditions: BL-1743, TEV; cited from earlier work
[3] = read-out: Activity remaining activity after 100uM inhibition

full length Udorn AM2 protein, sequence (P0DOF5 whole entry, looked up): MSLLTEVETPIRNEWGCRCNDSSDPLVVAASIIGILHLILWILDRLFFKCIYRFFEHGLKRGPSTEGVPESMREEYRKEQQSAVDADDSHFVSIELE

SMILES: C1CCC2(CC1)CCN(C1=NCCN1)CC2.I [BL-1743, 3-(4,5-Dihydro-1H-imidazol-2-yl)-3-azaspiro[5,5]undecane Hydroiodide, reference compound]
- AM2 remaing Activity after 100uM inhibition ([1]; TEV, Xenopus oocytes): 25%
- Hill coefficient for inhibition [2]: 1.0

SMILES: C1CCC2(CC1)CCN(CC1CC1)CC2 [Compound 1, 3-(Cyclopropylmethyl)-3-azaspiro[5,5]undecane]
- AM2 remaing Activity after 100uM inhibition ([1]; TEV, Xenopus oocytes): 100%

SMILES: C1CCC2(CC1)CCN(CC1CCCC1)CC2 [Compound 2, 3-(Cyclopentylmethyl)-3-azaspiro[5,5]undecane]
- AM2 remaing Activity after 100uM inhibition ([1]; TEV, Xenopus oocytes): 100%

SMILES: c1cc(CN2CCC3(CCCCC3)CC2)cs1 [Compound 3, 3-(Thiophen-3-ylmethyl)-3-azaspiro[5,5]undecane]
- AM2 remaing Activity after 100uM inhibition ([1]; TEV, Xenopus oocytes): 90%

SMILES: Cn1cc(CN2CCC3(CCCCC3)CC2)cn1 [Compound 4, 3-((1-Methyl-1H-pyrazol-4-yl)methyl)-3-azaspiro[5,5]undecane]
- AM2 remaing Activity after 100uM inhibition ([1]; TEV, Xenopus oocytes): 100%

SMILES: Cc1cc(CN2CCC3(CCCCC3)CC2)no1 [Compound 5, 3-(3-Azaspiro[5,5]undecan-3-ylmethyl)-5-methylisoxazole]
- AM2 remaing Activity after 100uM inhibition ([1]; TEV, Xenopus oocytes): 100%

SMILES: c1ccc(CN2CCC3(CCCCC3)CC2)nc1 [Compound 6, 3-(Pyridin-2-ylmethyl)-3-azaspiro[5,5]undecane]
- AM2 remaing Activity after 100uM inhibition ([1]; TEV, Xenopus oocytes): 100%

SMILES: c1nc(CN2CCC3(CCCCC3)CC2)c[nH]1 [Compound 7, 3-((1H-Imidazol-4-yl)methyl)-3-azaspiro[5.5]undecane]
- AM2 remaing Activity after 100uM inhibition ([1]; TEV, Xenopus oocytes): 70%
- inhibitory activity against AM2 (in words) [1]: moderate inhibition

SMILES: c1c[nH]c(CN2CCC3(CCCCC3)CC2)n1 [Compound 8, 3-((1H-Imidazol-2-yl)methyl)-3-azaspiro[5.5]undecane]
- AM2 remaing Activity after 100uM inhibition ([1]; TEV, Xenopus oocytes): 49%
- inhibitory activity against AM2 (in words) [1]: moderate inhibition

SMILES: C1CCC2(CC1)CCNCC2.Cl [Compound 9, 3-Azaspiro[5,5]undecane Chloride]
- IC50 ([1]; Table 2, TEV, Xenopus oocytes): 0.92 ± 0.11 µM
- increase in potency relative to BL-1743 ([1]; ratio of IC50 values): more than 45 fold

SMILES: CN1CCC2(CCCCC2)CC1.Cl [Compound 10, 3-Methyl-3-azoniaspiro[5,5]undecane Chloride]
- decrease in activity relative to spiro-piperidine 9 ([1]; ratio of IC50 values): approximately 20 fold

SMILES: NC(=O)N1CCC2(CCCCC2)CC1 [Compound 12, 3-Azaspiro[5,5]undecane-3-carboxamide]
- inhibitory activity against AM2 (in words) [1]: not active

SMILES: NC(=S)N1CCC2(CCCCC2)CC1 [Compound 13, 3-Azaspiro[5,5]undecane-3-carbothioamide]
- inhibitory activity against AM2 (in words) [1]: not active

SMILES: C1CCC2(CC1)CCNC2 [Compound 16, 2-Azoniaspiro[4,5]decane Chloride]
- IC50 [1]: 12 ± 1.6 µM

SMILES: C1COC2(CCNCC2)OC1 [Compound 17, 1,5-Dioxa-9-azaspiro[5,5]undecane]
- IC50 [1]: > 100 µM
- remaining activity at 100 µM [1, 3]: 100%

SMILES: C1CSC2(CCNCC2)SC1 [Compound 18, 1,5-Dithia-9-azaspiro[5,5]undecane]
- IC50 [1]: 37.6 ± 2.67 µM
- remaining activity at 100 µM [1, 3]: 12%

SMILES: CCC1(C)CCNCC1 [Compound 20, 4-Ethyl-4-methylpiperidinium Chloride]
- remaining activity at 100 µM ([1]; read-out: AM2 remaining Activity after 100uM inhibition): 22%
